Laboratory results: US20210009541A1, “FUNGICIDAL OXADIAZOLES” (Bayer Aktiengesellschaft, priority 2018, published 2021)

What was measured:
[1] = LogP by HPLC on reversed phase columns (EEC directive 79/831 Annex V.A8); assay type: physicochemical; details: reversed phase HPLC column; method [a]: LC-UV, acidic range, 0.1% formic acid in water and acetonitrile as eluent
Method: [table] If more than one Log P value is available within the same method, all the values are given and separated by “+”. […] Lambda-max-values were determined using UV-spectra from 200 nm to 400 nm and the peak values of the chromatographic signals.

[2] = system: Phakosporra pachirrhizi; assay: Example D: fungicidal activity against Phakosporra pachirrhizi (spore germination, 96-well imaging); assay type: cell-based; details: 30 ppm of active ingredient; wild-type spores, 4 hours at 21° C.; read-out: efficacy (inhibition of the fungal germination)
Method: Example D: Fungicidal Activity Against Phakosporra pachirrhizi
Cryo-conserved wild-type spores of the biotroph Phakosporra pachirrhizi are humidified in dedicated chamber overnight at 18° C. in the dark. The next day, a solution of spores at 7×10^3 sp/ml is prepared in a water based growth medium (DH2O+0.2 mM MOPS at pH 7+0.01% Tween 20) and spores are distributed in a 96-MTPS (final volume of 200 μL per well) thanks to a dispenser robot. Each molecule is tested at 10 doses (from 30 to 0.002 ppm final concentration) and accordingly 1.2 μL of each dilution is transferred in dedicated well to end-up with a final concentration of 0.6% DMSO. Wild-type spores and molecules are incubated for 4 hours at 21° C., and 6 images par well are then acquired with Transmitted Light images (Image Xpress Micro microscope, Molecular Devices, Objective 10λ, 6 images per well). Detection and quantification of the number of germinated spores per image is performed with a dedicated in-house developed algorithm (MetaXpress software, Molecular Devices).

[3] = system: Colletotrichum lindemuthianum; assay: Example E: Colletotrichum lindemuthianum in vitro cell test; assay type: cell-based; details: 144 h, 20 ppm of active ingredient, liquid culture, 6 days incubation, read-out: efficacy (inhibition of fungal growth)
Method: Example E: Colletotrichum lindemuthianum In Vitro Cell Test
• Solvent: DMSO Culture medium: 14.6 g anhydrous D-glucose (VWR), 7.1 g Mycological Peptone (Oxoid), 1.4 g granulated Yeast Extract (Merck), QSP 1 liter • Inoculum: spores suspension
Active ingredients were solubilized in DMSO and the solution used to prepare the required range of concentrations. The final concentration of DMSO used in the assay was 1%.
A spore suspension of C. lindemuthianum was prepared and diluted to the desired spore density.
The active ingredients were evaluated for their ability to inhibit spores germination and mycelium growth in liquid culture assay. The compounds were added in the desired concentration to the culture medium with spores. After 6 days incubation, fungi-toxicity of compounds was determined by spectrometric measurement of mycelium growth. Inhibition of fungal growth was determined by comparing the absorbance values in wells containing the active ingredient with the absorbance in control wells without active ingredient.

chromatographic logP [1]: 3.79
Structure (SMILES): CON(C(C)=O)C1CCCc2cc(-c3noc(C(F)(F)F)n3)ccc21 (stereo not drawn) [Compound I-020, N-Methoxy-N-{6-[5-(trifluoromethyl)-1,2,4-oxadiazol-3-yl]-1,2,3,4-tetrahydronaphthalen-1-yl}acetamide]
inhibition at 30 ppm [2]: 70 to 79%
inhibition at 20 ppm [3]: 90 to 100%
